Test results reported in ChEMBL document CHEMBL1201862, “PubChem BioAssay data set” (2004).
Activity calls are given as the source filed them.

Key:
[1] = general cell-killing toxicity readout – plate reader, dry powder samples, cytotoxicity control for PAX8 inhibitor project, dose response (AID 743021); type: functional, cell-based
[2] = biological target: Luciferin 4-monooxygenase (Photinus pyralis, UniProt P08659); assay: Counter Screen for Luciferase-based Assay Positives. [Related pubchem assays: 620, 618, 411 ]
Paired box protein Pax-8 = Paired box protein Pax-8 (Homo sapiens, UniProt Q06710); assay: PAX8 transcriptional activity inhibition in RMG-I – RMG-I cells, luciferase, cherry-pick, dose response (AID 687027); type: functional, cell-based;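 further: luciferase reporter driven by Pax8 target thyroperoxidase promoter measured by SteadyGlo luminescence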
[3] = biological target: T1, Microphthalmia-associated transcription factor (Homo sapiens, UniProt O75030); assay: reducers of TRPM1 reporter luminescence, concentration series – cell-based, SK-MEL-5, cherry-picked, set 3, MITF inhibitor project, dose response (AID 493073); type: functional;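 further: SK-MEL-5 melanoma cells with luciferase driven by the MITF target TRPM1 promoter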
T1 sequence (O75030 whole entry): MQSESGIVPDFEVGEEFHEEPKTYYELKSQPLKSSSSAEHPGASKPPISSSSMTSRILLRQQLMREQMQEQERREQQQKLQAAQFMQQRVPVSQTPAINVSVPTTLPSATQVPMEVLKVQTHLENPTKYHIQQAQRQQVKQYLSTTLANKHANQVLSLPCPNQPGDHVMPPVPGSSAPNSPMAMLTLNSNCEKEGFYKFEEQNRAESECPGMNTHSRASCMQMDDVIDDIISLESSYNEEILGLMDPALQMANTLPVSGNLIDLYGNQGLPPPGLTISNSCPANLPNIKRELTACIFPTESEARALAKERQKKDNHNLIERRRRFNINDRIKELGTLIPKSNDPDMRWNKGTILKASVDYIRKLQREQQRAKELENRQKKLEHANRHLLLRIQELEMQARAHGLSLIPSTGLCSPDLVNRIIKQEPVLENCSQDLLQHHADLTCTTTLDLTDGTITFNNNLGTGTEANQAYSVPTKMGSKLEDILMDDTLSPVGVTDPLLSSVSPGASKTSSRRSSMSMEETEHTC

HT-1080 = assay: HT1080 cell viability loss – fluorescence readout (AID 620); type: functional, cell-based; details: Homo sapiens
cells = type: functional
[4] = decrease of insulin promoter-GFP reporter – imaging, high-content screening, mouse beta cells (AID 1628); type: functional; details: MIN6
[5] = viability of PTEN-deleted HCT116 cells – cell-based, HCT116 PTEN knockout, dose response (AID 1047); type: functional;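 further: HCT116 colon tumor cells with PTEN knocked out; cells exposed to compound for 60 hours before readout; potency for loss of cell viability measured by luminescence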
[6] = HepG2 cell cytotoxicity, dose response, cytotoxicity control for non-replicating M. tuberculosis project (AID 489018); type: functional; details: Mycobacterium tuberculosis
Cytochrome P450 2C9 = Cytochrome P450 2C9 (Homo sapiens, UniProt P11712)
[7] = MIN6 cell viability loss – mouse insulinoma, cytotoxicity control, dose response (AID 2122); type: functional;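 further: confirmatory high-throughput counterscreen run to flag cytotoxic compounds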
Vero = assay: cells; type: functional; details: Chlorocebus sabaeus
[8] = viability of HCT116 lacking mutant beta-catenin – cell-based, human colon tumor, dose response (AID 1045); type: functional;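 further: HCT116 colon tumor cells with beta catenin knocked out; cells exposed to compound for 60 hours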
[9] = THP-1 cell cytotoxicity, dose response, cytotoxicity control for non-replicating M. tuberculosis project (AID 489025); type: functional
[10] = Vero E6 cell cytotoxicity, dose response, cytotoxicity control for non-replicating M. tuberculosis project, secondary assay (AID 492998); type: functional, VeroE6; details: Vero C1008
[11] = biological target: T2, Lysine-specific demethylase 4C (Homo sapiens, UniProt Q9H3R0); assay: inhibition of JMJD2C H3K9me3 demethylation – biochemical, DELFIA europium, cherry-picked samples, dose response (AID 488835); type: functional
T2 sequence (Q9H3R0 whole entry): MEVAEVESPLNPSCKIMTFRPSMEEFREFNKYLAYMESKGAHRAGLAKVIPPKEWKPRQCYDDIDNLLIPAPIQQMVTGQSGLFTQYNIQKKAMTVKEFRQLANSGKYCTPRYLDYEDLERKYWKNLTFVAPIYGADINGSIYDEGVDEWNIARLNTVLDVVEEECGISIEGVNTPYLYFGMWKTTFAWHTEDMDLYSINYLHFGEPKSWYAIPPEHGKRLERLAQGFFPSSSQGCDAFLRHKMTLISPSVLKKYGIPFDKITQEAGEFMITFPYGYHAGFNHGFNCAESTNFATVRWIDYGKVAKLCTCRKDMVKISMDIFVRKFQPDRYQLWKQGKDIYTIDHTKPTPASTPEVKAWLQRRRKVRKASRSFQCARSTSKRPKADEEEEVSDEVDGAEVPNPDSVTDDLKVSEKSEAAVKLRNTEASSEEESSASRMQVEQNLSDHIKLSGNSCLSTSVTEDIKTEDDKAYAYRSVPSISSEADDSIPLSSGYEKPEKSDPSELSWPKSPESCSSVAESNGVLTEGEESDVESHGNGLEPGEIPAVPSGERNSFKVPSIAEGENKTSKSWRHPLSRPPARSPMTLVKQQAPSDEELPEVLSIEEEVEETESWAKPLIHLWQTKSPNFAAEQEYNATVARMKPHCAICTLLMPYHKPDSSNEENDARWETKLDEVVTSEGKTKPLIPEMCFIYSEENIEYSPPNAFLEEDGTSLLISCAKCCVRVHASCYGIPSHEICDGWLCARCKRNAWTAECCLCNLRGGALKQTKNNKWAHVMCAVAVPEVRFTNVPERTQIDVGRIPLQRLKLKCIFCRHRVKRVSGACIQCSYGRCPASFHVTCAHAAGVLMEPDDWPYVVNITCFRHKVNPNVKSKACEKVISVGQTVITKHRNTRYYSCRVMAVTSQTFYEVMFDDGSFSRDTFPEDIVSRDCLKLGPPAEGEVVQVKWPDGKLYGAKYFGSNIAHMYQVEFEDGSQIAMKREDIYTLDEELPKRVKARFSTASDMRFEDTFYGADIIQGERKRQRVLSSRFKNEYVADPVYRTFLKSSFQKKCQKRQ

[12] = viability loss of HPDE-C7K cells – cell-based, fluorescence, HTS, primary screen (AID 431); type: functional; details: Homo sapiens
[13] = Trypanosoma cruzi growth suppression in host cells – NIH3T3 host cells, beta-gal luminescence, confirmation (AID 2044); type: functional, cell-based;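 further: intracellular parasites grown in NIH/3T3 mouse fibroblasts as host cells; luminescent beta-galactosidase reporter signal from transgenic T. cruzi replicating inside host cells; inhibitors lower the luminescence signal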
[14] = HPDE-C7 pancreatic duct cell viability loss – fluorescence, HTS (AID 430); type: functional, cell-based; details: Homo sapiens
[15] = biological target: T3, Replicative DNA helicase DnaB (Mycobacterium tuberculosis, UniProt P9WMR3); assay: DnaB intein splicing inhibitors, dose response, biochemical, cell-free fluorescence (AID 449749); type: functional
T3 sequence (P9WMR3 whole entry): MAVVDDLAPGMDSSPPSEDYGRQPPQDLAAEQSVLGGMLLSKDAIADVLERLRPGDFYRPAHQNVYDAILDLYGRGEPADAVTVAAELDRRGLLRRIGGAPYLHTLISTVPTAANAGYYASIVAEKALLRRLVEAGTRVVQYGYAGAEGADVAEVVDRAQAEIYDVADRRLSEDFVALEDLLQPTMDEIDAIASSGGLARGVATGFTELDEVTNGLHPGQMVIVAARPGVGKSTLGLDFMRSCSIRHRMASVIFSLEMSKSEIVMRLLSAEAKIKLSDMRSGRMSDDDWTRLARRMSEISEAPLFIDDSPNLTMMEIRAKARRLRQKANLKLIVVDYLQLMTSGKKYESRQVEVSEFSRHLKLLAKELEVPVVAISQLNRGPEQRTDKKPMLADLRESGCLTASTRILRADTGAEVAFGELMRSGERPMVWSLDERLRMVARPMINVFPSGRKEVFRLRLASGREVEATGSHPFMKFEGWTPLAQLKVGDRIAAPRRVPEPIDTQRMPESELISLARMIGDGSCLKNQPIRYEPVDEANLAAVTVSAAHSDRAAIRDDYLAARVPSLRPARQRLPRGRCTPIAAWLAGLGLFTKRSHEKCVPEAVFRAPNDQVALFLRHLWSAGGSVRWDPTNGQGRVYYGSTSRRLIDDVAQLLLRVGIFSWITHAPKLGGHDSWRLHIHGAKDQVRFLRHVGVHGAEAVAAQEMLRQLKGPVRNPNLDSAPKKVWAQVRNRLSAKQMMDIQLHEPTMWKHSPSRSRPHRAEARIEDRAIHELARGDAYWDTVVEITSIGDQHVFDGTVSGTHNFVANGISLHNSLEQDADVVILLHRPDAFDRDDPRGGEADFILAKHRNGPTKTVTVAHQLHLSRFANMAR

Protein RecA = biological target: T4, Protein RecA (Mycobacterium tuberculosis, UniProt P9WHJ3); assay: Fluorescence Cell-Free Homogeneous Dose Retest to Identify Inhibitors of RecA-Intein Splicing Activity. [Related pubchem assays (depositor defined):AID2097, AID2223, AID489010, AID492950]; type: functional
T4 sequence (P9WHJ3 whole entry): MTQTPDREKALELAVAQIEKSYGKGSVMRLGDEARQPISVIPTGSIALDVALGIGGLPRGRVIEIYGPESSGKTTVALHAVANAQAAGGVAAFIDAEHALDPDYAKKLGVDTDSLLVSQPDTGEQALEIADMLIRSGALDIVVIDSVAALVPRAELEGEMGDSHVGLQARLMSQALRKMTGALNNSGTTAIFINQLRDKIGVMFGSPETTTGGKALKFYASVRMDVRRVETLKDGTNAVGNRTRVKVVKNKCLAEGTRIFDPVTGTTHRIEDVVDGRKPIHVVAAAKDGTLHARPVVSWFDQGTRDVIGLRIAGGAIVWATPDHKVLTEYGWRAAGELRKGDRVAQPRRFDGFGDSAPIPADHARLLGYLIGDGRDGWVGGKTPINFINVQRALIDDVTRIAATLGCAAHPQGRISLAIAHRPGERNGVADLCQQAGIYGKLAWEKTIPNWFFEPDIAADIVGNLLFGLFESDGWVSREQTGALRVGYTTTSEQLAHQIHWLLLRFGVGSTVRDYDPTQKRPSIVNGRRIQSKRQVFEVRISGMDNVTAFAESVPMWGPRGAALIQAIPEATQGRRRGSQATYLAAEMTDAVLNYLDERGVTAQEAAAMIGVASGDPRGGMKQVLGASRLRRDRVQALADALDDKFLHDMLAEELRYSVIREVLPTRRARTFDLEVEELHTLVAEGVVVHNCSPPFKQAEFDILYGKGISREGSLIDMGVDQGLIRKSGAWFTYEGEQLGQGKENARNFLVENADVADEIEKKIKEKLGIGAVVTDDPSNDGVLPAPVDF

[16] = NIH3T3 cell viability loss – ATP luminescence, mouse fibroblasts, counter-screen, dose response (AID 2010); type: functional, cell-based;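 further: cells exposed to compound for about 90 hours before reading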
Genome polyprotein = Genome polyprotein (dengue virus type 2, UniProt P29990); assay: flavivirus cap methylation enzyme inhibition – biochemical, confirmation dose response, primary screen (AID 588689); type: functional
[17] = biological target: Intestinal-type alkaline phosphatase (Mus musculus, UniProt P24822); assay: PubChem AID 488785; type: functional
[18] = biological target: T5, Alkaline phosphatase, tissue-nonspecific isozyme (Homo sapiens, UniProt P05186); assay: TNAP enzyme inhibition by screening hits, dose response, selectivity assay for mouse IAP inhibitor project, biochemical, human TNAP, uHTS hits (AID 488906); type: functional
T5 sequence (P05186 whole entry): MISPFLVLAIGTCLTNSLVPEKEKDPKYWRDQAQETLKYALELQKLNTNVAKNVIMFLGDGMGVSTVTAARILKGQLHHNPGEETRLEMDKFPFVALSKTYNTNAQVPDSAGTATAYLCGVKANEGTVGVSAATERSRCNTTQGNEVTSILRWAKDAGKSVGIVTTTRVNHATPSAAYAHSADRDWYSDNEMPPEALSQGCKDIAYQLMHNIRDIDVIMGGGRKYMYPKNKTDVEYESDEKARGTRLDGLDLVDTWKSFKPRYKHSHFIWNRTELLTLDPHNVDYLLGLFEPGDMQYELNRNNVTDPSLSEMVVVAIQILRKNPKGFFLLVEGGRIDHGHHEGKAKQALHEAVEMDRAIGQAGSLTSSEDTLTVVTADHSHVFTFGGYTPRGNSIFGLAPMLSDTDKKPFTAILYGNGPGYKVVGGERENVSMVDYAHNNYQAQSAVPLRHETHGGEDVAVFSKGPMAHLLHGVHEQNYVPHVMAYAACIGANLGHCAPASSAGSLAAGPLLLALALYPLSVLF

[19] = biological target: Intestinal-type alkaline phosphatase (Homo sapiens, UniProt P09923); assay: inhibition of human intestinal alkaline phosphatase – biochemical, dose response (AID 488876); type: functional
Chain of Intestinal-type alkaline phosphatase (Homo sapiens, UniProt P09923) (P09923 whole entry): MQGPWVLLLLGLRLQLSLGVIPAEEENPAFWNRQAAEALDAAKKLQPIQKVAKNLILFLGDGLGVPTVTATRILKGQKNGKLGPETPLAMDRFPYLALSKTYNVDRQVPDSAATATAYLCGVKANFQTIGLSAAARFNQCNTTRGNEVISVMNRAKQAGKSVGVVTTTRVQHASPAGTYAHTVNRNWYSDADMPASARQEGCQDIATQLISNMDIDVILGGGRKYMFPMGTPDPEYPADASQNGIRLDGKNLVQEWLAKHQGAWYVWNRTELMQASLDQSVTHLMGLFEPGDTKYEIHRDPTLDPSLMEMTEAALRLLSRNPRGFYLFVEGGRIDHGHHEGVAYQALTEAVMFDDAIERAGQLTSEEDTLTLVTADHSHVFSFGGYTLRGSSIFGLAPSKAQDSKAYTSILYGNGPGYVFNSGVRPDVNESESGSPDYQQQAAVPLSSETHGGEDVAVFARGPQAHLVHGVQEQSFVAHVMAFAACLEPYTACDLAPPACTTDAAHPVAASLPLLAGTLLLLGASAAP

Chain of Luciferin 4-monooxygenase (P08659 whole entry): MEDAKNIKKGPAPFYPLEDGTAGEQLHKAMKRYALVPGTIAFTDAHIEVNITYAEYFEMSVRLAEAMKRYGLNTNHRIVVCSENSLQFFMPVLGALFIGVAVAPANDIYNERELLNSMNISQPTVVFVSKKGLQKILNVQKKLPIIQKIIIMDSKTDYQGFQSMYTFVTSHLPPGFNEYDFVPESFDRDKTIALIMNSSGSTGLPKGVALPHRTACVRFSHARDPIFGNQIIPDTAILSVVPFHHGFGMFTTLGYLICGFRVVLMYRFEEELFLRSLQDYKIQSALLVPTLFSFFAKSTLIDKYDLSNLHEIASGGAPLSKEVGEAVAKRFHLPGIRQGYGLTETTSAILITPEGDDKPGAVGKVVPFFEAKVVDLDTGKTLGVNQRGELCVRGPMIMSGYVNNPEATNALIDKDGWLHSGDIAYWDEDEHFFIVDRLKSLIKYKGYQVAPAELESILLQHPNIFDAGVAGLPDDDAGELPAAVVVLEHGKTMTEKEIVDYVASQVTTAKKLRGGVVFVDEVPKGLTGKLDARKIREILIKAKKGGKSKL
Chain of Paired box protein Pax-8 (Q06710 whole entry): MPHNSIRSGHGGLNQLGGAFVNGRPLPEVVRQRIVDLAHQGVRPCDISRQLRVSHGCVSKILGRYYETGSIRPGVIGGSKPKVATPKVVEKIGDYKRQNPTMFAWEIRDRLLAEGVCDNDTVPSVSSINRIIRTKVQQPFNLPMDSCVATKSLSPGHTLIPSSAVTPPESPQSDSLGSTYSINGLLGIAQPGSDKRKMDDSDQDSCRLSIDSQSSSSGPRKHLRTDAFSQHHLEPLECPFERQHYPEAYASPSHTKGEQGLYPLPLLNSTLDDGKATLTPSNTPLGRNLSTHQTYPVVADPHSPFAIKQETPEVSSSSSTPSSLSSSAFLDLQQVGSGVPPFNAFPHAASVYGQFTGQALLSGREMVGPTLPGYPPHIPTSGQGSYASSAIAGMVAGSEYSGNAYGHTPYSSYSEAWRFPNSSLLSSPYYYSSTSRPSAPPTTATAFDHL
Chain of Genome polyprotein (P29990 2492-3391 limits assumed): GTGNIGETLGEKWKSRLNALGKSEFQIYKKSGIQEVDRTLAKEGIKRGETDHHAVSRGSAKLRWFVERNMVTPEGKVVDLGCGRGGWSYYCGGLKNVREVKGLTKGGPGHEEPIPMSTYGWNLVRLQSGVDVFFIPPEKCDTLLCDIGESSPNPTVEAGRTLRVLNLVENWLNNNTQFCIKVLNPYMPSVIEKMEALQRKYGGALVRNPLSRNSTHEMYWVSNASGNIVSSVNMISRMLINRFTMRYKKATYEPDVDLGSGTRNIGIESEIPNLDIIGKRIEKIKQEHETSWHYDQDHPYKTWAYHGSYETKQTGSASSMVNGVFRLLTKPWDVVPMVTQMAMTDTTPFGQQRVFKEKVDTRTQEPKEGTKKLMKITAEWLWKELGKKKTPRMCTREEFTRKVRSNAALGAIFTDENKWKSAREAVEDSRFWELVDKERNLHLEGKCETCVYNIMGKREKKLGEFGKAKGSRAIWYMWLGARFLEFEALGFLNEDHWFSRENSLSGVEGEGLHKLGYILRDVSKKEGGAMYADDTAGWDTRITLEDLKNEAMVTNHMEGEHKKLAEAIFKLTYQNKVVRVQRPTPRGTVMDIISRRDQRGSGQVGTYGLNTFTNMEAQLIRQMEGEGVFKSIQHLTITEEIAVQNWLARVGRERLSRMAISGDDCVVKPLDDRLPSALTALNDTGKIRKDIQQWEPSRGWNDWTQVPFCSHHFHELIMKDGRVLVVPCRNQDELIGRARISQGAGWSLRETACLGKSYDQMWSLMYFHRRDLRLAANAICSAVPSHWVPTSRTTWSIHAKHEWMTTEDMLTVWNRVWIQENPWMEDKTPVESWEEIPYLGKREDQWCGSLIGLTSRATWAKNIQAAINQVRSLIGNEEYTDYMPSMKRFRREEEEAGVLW
Chain of Cytochrome P450 2C9 (P11712 whole entry): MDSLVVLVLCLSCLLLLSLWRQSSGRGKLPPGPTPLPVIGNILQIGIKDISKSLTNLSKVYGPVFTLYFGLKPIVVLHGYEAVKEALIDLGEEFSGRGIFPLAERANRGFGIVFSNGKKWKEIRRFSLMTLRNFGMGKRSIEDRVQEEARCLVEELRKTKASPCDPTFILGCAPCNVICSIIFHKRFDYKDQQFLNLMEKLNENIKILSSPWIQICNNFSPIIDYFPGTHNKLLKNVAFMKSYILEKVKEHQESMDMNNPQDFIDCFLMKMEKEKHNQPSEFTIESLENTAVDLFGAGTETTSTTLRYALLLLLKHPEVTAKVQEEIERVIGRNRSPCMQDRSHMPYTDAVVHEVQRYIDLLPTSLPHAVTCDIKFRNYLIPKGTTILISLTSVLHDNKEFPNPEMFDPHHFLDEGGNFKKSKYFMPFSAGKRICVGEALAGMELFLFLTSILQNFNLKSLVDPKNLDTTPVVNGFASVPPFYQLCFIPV
Chain of Intestinal-type alkaline phosphatase (Mus musculus, UniProt P24822) (P24822 whole entry): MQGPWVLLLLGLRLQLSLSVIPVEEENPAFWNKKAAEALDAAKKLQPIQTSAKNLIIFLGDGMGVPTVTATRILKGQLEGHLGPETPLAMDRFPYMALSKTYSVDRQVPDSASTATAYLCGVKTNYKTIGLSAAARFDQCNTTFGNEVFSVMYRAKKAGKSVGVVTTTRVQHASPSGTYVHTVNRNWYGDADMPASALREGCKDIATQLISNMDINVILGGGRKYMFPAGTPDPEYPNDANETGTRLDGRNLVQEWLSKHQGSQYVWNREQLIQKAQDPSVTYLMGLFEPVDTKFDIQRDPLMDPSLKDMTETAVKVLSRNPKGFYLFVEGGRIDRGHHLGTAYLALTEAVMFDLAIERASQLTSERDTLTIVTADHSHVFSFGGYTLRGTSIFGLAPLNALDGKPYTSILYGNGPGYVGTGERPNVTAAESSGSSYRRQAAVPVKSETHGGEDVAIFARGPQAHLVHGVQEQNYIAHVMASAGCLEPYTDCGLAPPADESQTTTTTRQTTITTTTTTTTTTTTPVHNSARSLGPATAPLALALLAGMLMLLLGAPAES

With `Cc1cc(C)c2c(N)c(C(=O)Nc3ncc(C)s3)sc2n1` the AC50 [1] was 36.7 µM (active), the EC50 [2] was < 0.2 µM (active) and the AC50 (Paired box protein Pax-8) was 2.92 µM (active). For the same compound, the AC50 [3] was 1.09 µM (active) and the EC50 (HT-1080) was > 50 µM (not active).

For `CCOc1cc(CNCCO)cc(Br)c1OCc1ccccc1Cl`, the IC50 (cells) was 18.4 µM (active), the IC50 [4] was 1.43 µM (active) and the EC50 [5] was 9.8 µM (active). For the same compound, the CC50 [6] was 14.1 µM (active), the AC50 (Cytochrome P450 2C9) was 28.2 µM (inconclusive) and the IC50 [7] was 1.56 µM (active). For the same compound, the CC50 (Vero) was 13.8 µM (active), the EC50 [8] was 9.13 µM (active) and the CC50 [9] was 11.5 µM (active). The CC50 [10] was 19.7 µM (active).

In the case of `Nc1c(Cl)ncnc1NCc1cccnc1`, the AC50 [11] is reported as 5.63 µM (active).

In the case of `N=c1c2c(-c3ccccc3)c(-c3ccccc3)n(Cc3ccco3)c2ncn1Cc1ccco1`, the IC50 [4] is reported as 1.72 µM (active), the EC50 [12] is reported as 11.9 µM (active) and the EC50 [5] is reported as 1.16 µM (active). For the same compound, the EC50 [13] was 0.68 µM (active), the EC50 [14] was 7.73 µM (active) and the AC50 [15] was 6.15 µM (active). The IC50 [7] was 2.49 µM (active), the EC50 (Protein RecA) was 8.76 µM (active) and the EC50 [8] was 0.891 µM (active). The EC50 [16] was 13.5 µM (active).

For `CC1=NN(c2ccc(C)cc2C)C(=O)C1C(c1ccccc1)C1C(=O)N(c2ccc(C)cc2C)N=C1C` (centres undefined), the IC50 (Genome polyprotein) was 48.8 µM (active), the AC50 [15] was 0.523 µM (active) and the EC50 (Protein RecA) was 0.431 µM (active). The AC50 [11] was 16.3 µM (active).

In the case of `O=C(CCNS(=O)(=O)c1ccc2[nH]c(=O)oc2c1)Nc1ccccc1`, the IC50 [17] is reported as 2.4 µM (active), the IC50 [18] is reported as 17.8 µM (active) and the IC50 [19] is reported as 26.9 µM (active).

For `Cn1c(/N=C/c2cc(Cl)ccc2O)nc2ccccc21`, the AC50 [11] was 10.4 µM (active).
